Test results published in PMC7265341, “Quantifying CDK inhibitor selectivity in live cells” (Nature Communications, 2020).
Like-named read-outs stand apart in the source and are kept apart here.

Columns and labels:
CDK19/Cyclin C = CDK19/Cyclin C (Homo sapiens, UniProt Q9BWU1); assay: NanoBRET live-cell target engagement, NanoLuc-CDK19/Cyclin C in HEK-293; settings: 10µM
CDK4/Cyclin D1 = CDK4/Cyclin D1 (Homo sapiens, UniProt P11802); assay: NanoBRET live-cell target engagement, NanoLuc-CDK4/Cyclin D1 in HEK-293; assay type: binding; settings: CDK4/D1, 10µM
CDK9/Cyclin K = CDK9/Cyclin K (Homo sapiens, UniProt P50750); assay: NanoBRET live-cell target engagement, NanoLuc-CDK9/Cyclin K in HEK-293; assay type: binding; settings: CDK9/K, 10µM
CDK6/Cyclin D1 = CDK6/Cyclin D1 (Homo sapiens, UniProt Q00534); assay: NanoBRET live-cell target engagement, NanoLuc-CDK6/Cyclin D1 in HEK-293; assay type: binding; settings: CDK6/D1, 10µM
CDK11A/Cyclin L2 = target: T1, CDK11A/Cyclin L2 (Homo sapiens, UniProt Q9UQ88); assay: NanoBRET live-cell target engagement, CDK11A-NanoLuc/Cyclin L2 in HEK-293; assay type: binding; settings: 10µM
T1 sequence (Q9UQ88 1-783): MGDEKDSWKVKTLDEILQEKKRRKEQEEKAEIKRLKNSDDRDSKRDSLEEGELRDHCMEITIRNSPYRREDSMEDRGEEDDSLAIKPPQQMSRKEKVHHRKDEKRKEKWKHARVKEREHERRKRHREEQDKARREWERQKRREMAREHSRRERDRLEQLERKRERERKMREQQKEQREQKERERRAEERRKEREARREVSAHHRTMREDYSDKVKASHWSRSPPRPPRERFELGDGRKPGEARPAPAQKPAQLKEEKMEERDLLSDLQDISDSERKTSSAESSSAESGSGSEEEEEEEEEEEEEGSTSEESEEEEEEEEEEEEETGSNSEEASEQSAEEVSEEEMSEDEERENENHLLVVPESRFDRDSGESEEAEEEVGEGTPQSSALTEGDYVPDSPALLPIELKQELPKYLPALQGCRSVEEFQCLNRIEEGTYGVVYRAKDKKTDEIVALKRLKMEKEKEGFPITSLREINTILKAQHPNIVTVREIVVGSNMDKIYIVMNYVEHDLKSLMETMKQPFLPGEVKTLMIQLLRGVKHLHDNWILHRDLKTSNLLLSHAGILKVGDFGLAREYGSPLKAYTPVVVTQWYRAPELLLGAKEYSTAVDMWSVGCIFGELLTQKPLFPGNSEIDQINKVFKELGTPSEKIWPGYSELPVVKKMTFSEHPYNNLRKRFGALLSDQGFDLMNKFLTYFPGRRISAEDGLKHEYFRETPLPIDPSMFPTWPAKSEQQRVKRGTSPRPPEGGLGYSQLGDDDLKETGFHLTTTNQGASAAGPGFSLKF

CDK15/Cyclin Y = CDK15/Cyclin Y (Homo sapiens, UniProt Q96Q40); assay: NanoBRET live-cell target engagement, NanoLuc-CDK15/Cyclin Y in HEK-293; assay type: binding; settings: 10µM
CDK17/Cyclin Y = CDK17/Cyclin Y (Homo sapiens, UniProt Q00537); assay: NanoBRET live-cell target engagement, CDK17-NanoLuc/Cyclin Y in HEK-293; assay type: binding; settings: 10µM
CDK8/Cyclin C = CDK8/Cyclin C (Homo sapiens, UniProt P49336); assay: NanoBRET live-cell target engagement, NanoLuc-CDK8/Cyclin C in HEK-293; assay type: binding; settings: CDK8/C, 10µM
CDK12/Cyclin K = CDK12/Cyclin K (Homo sapiens, UniProt Q9NYV4); assay: NanoBRET live-cell target engagement, CDK12-NanoLuc/Cyclin K in HEK-293; assay type: binding; settings: 10µM
CDK14/Cyclin Y = CDK14/Cyclin Y (Homo sapiens, UniProt O94921); assay: NanoBRET live-cell target engagement, CDK14-NanoLuc/Cyclin Y in HEK-293; assay type: binding; settings: 10µM
CDK5/CDK5R1 = CDK5/CDK5R1 (Homo sapiens, UniProt Q00535); assay: NanoBRET live-cell target engagement, CDK5-NanoLuc/CDK5R1 in HEK-293; assay type: binding; settings: CDK5/CDK5R1, 10µM
CDK16/Cyclin Y = CDK16/Cyclin Y (Homo sapiens, UniProt Q00536); assay: NanoBRET live-cell target engagement, CDK16-NanoLuc/Cyclin Y in HEK-293; assay type: binding; settings: 10µM
CDK13/Cyclin K = CDK13/Cyclin K (Homo sapiens, UniProt Q14004); assay: NanoBRET live-cell target engagement, CDK13-NanoLuc/Cyclin K in HEK-293; assay type: binding; settings: CDK13/K, 10µM
CDK10/Cyclin L2 = CDK10/Cyclin L2 (Homo sapiens, UniProt Q15131); assay: NanoBRET live-cell target engagement, CDK10-NanoLuc/Cyclin L2 in HEK-293; settings: 10µM
CDK2/Cyclin E1 = CDK2/Cyclin E1 (Homo sapiens, UniProt P24941); assay: NanoBRET live-cell target engagement, CDK2-NanoLuc/Cyclin E1 in HEK-293; assay type: binding; settings: CDK2/E1, 10µM
CDK1/Cyclin E1 = CDK1/Cyclin E1 (Homo sapiens, UniProt P06493); assay: NanoBRET live-cell target engagement, CDK1-NanoLuc/Cyclin E1 in HEK-293; assay type: binding; settings: CDK1/E1, 10µM
CDK11B/Cyclin L2 = CDK11B/Cyclin L2 (Homo sapiens, UniProt P21127); assay: NanoBRET live-cell target engagement, CDK11B-NanoLuc/Cyclin L2 in HEK-293; assay type: binding; settings: 10µM
CDK18/Cyclin Y = CDK18/Cyclin Y (Homo sapiens, UniProt Q07002); assay: NanoBRET live-cell target engagement, CDK18-NanoLuc/Cyclin Y in HEK-293; assay type: binding; settings: 10µM
CDK20/Cyclin H = CDK20/Cyclin H (Homo sapiens, UniProt Q8IZL9); assay: NanoBRET live-cell target engagement, NanoLuc-CDK20/Cyclin H in HEK-293; assay type: binding; settings: 10µM
[1] = average of replicates, read-out: Inhibition at 10µM (%) Average
[2] = read-out: Inhibition at 10µM (%) Replicate 1
[3] = read-out: Inhibition at 10µM (%) Replicate 2

Sequence of CDK15/Cyclin Y (Q96Q40 whole entry): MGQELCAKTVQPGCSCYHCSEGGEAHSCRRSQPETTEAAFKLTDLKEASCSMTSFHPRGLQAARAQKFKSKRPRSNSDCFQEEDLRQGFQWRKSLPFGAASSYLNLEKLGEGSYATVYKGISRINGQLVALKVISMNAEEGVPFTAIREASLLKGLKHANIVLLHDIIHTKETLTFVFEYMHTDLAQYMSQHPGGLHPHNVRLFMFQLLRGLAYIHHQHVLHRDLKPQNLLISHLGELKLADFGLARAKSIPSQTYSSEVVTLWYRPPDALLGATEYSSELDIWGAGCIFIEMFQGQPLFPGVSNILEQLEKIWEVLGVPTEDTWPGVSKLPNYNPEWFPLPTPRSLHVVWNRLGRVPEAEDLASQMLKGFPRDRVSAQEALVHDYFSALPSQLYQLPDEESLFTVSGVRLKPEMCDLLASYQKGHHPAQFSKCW
Sequence of CDK15/Cyclin Y (Q8ND76 whole entry partner): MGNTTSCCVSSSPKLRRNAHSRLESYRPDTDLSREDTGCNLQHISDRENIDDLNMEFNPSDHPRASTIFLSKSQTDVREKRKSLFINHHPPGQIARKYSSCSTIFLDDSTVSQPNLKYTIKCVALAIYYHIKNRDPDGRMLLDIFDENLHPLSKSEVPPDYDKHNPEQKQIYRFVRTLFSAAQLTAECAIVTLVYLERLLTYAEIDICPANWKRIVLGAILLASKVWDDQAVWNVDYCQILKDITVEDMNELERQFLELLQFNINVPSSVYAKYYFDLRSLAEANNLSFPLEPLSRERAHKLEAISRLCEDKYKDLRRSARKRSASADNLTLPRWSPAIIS
Sequence of CDK4/Cyclin D1 (P11802 whole entry): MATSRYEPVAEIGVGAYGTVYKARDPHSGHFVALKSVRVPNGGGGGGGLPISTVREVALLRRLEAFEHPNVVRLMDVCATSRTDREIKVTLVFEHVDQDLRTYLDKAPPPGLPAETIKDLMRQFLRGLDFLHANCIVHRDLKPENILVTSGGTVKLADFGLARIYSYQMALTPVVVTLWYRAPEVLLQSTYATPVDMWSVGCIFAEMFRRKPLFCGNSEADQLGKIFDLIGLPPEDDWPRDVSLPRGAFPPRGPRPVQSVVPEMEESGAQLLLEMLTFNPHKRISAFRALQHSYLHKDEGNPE
Sequence of CDK4/Cyclin D1 (P24385 whole entry partner): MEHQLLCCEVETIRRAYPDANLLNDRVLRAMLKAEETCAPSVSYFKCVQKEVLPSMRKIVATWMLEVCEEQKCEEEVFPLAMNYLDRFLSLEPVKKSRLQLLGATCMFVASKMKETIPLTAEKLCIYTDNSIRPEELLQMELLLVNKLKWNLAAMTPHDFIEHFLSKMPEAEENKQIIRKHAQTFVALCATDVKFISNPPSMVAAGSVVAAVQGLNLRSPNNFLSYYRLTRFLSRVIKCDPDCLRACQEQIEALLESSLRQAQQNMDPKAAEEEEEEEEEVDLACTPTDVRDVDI
Sequence of CDK13/Cyclin K (O75909 whole entry): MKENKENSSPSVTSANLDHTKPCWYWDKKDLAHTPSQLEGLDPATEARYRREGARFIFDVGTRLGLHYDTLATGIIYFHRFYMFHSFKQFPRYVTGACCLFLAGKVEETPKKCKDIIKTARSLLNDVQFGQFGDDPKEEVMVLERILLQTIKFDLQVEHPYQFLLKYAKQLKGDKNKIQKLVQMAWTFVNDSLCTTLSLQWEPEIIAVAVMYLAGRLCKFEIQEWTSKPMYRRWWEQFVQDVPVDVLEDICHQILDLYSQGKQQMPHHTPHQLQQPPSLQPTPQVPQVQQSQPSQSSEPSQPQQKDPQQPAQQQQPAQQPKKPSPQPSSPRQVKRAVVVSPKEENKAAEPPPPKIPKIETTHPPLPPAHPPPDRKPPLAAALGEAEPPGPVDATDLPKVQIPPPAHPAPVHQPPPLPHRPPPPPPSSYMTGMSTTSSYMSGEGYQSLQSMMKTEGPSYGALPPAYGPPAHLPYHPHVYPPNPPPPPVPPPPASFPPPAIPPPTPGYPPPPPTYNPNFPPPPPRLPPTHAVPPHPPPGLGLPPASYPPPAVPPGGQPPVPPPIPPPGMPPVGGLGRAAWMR
Sequence of CDK13/Cyclin K (Q14004 other isoform, or with tags, fused parts or gaps): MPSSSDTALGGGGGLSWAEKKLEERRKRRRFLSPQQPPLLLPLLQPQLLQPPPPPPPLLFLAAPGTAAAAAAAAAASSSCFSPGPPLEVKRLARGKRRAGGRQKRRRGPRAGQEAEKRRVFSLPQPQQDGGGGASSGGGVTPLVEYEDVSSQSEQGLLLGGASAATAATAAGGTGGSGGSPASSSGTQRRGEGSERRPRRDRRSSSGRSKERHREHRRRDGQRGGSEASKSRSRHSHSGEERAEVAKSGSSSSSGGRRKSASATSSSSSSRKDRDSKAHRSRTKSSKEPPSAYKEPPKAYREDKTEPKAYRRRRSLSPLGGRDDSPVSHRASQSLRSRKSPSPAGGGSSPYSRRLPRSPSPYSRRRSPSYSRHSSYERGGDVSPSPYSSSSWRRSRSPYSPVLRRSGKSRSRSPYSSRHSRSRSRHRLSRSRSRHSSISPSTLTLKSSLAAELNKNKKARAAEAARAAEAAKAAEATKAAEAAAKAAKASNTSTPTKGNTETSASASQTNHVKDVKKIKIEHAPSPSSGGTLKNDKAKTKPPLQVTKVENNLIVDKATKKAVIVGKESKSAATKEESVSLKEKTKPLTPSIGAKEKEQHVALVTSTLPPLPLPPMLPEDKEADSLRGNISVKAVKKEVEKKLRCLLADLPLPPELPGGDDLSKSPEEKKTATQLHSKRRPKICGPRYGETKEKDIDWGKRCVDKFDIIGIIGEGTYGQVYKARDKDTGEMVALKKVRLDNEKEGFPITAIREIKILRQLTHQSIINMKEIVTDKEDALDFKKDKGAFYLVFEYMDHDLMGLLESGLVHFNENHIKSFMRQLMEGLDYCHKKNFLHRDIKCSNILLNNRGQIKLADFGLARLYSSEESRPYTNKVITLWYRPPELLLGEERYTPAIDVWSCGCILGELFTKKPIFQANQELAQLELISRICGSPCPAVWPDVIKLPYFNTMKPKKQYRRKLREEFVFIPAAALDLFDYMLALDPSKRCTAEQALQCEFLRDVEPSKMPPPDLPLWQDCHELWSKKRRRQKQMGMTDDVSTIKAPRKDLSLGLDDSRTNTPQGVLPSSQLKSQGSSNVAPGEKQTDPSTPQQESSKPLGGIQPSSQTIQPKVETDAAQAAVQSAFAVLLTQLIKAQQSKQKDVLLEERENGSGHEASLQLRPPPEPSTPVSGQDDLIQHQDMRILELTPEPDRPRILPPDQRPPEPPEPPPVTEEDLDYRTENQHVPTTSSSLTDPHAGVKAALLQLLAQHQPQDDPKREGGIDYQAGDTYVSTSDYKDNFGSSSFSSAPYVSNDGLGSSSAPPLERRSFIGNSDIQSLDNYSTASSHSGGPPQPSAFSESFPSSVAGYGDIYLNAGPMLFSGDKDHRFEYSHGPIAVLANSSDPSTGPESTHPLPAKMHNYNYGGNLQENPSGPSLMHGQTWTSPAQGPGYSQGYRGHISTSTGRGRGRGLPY
Sequence of CDK9/Cyclin K (P50750 whole entry): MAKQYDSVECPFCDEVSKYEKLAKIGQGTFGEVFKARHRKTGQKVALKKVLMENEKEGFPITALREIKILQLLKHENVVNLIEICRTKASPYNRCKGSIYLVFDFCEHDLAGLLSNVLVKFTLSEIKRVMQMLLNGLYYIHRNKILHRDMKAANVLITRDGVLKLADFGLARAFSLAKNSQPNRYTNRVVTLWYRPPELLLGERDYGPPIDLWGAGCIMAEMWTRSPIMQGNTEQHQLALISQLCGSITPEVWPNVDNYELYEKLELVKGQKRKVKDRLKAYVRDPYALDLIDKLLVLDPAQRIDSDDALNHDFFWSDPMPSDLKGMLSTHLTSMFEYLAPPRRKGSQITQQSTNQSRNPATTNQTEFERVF
Sequence of CDK9/Cyclin K (O75909 whole entry partner): as the sequence (O75909 whole entry) above
Sequence of CDK18/Cyclin Y (Q07002 whole entry): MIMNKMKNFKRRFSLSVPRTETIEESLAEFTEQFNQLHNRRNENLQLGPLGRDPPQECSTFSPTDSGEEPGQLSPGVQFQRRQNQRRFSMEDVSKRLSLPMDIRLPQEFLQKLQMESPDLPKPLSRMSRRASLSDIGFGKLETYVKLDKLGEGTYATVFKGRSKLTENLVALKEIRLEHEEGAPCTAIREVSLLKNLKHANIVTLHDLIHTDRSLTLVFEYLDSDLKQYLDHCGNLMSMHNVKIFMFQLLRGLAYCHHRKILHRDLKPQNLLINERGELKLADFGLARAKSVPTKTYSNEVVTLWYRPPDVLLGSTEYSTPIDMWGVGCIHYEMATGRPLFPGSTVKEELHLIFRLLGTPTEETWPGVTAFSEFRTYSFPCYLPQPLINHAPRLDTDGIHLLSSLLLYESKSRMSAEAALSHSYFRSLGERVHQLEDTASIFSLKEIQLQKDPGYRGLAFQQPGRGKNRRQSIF
Sequence of CDK18/Cyclin Y (Q8ND76 whole entry partner): as the sequence (Q8ND76 whole entry partner) above
Sequence of CDK6/Cyclin D1 (Q00534 whole entry): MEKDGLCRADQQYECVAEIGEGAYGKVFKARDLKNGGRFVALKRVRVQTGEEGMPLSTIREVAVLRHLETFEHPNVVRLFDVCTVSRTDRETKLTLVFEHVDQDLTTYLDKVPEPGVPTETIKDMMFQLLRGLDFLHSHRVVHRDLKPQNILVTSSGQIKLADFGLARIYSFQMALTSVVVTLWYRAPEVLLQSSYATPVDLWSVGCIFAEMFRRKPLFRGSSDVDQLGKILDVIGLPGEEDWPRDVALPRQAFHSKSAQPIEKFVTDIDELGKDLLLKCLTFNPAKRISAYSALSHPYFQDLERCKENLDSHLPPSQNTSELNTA
Sequence of CDK6/Cyclin D1 (P24385 whole entry partner): as the sequence (P24385 whole entry partner) above

CC(C)c1cnn2c(NCc3ccccc3)cc(NCCCCCCN)nc12 [BS-181]
inhibition at 10 µM (CDK19/Cyclin C; read-out: Inhibition at 10µM (%) Average, CDK19/C, average of replicates): -1.8% | inhibition at 10 µM (CDK19/Cyclin C; read-out: Inhibition at 10µM (%) Replicate 1, CDK19/C): 15% | inhibition at 10 µM (CDK19/Cyclin C; read-out: Inhibition at 10µM (%) Replicate 2, CDK19/C): -18.6% | inhibition at 10 µM (CDK4/Cyclin D1; [1]): 43.3% | inhibition at 10 µM (CDK4/Cyclin D1; [2]): 30.9% | inhibition at 10 µM (CDK4/Cyclin D1; [3]): 55.8% | inhibition at 10 µM (CDK9/Cyclin K; [1]): 35.3% | inhibition at 10 µM (CDK9/Cyclin K; [2]): 28.8% | inhibition at 10 µM (CDK9/Cyclin K; [3]): 41.8% | inhibition at 10 µM (CDK6/Cyclin D1; [1]): 8.7% | inhibition at 10 µM (CDK6/Cyclin D1; [2]): 1.8% | inhibition at 10 µM (CDK6/Cyclin D1; [3]): 15.5% | inhibition at 10 µM (CDK11A/Cyclin L2; read-out: Inhibition at 10µM (%) Average, CDK11a/L2, average of replicates): 33.7% | inhibition at 10 µM (CDK11A/Cyclin L2; read-out: Inhibition at 10µM (%) Replicate 1, CDK11a/L2): 34.5% | inhibition at 10 µM (CDK11A/Cyclin L2; read-out: Inhibition at 10µM (%) Replicate 2, CDK11a/L2): 32.9% | inhibition at 10 µM (CDK15/Cyclin Y; read-out: Inhibition at 10µM (%) Average, CDK15/Y, average of replicates): 33.2% | inhibition at 10 µM (CDK15/Cyclin Y; read-out: Inhibition at 10µM (%) Replicate 1, CDK15/Y): 36.4% | inhibition at 10 µM (CDK15/Cyclin Y; read-out: Inhibition at 10µM (%) Replicate 2, CDK15/Y): 30% | inhibition at 10 µM (CDK17/Cyclin Y; read-out: Inhibition at 10µM (%) Average, CDK17/Y, average of replicates): 36.6% | inhibition at 10 µM (CDK17/Cyclin Y; read-out: Inhibition at 10µM (%) Replicate 1, CDK17/Y): 38.2% | inhibition at 10 µM (CDK17/Cyclin Y; read-out: Inhibition at 10µM (%) Replicate 2, CDK17/Y): 35.1% | inhibition at 10 µM (CDK8/Cyclin C; [1]): -11.6% | inhibition at 10 µM (CDK8/Cyclin C; [2]): 2.3% | inhibition at 10 µM (CDK8/Cyclin C; [3]): -25.4% | inhibition at 10 µM (CDK12/Cyclin K; read-out: Inhibition at 10µM (%) Average, CDK12/K, average of replicates): 25.8% | inhibition at 10 µM (CDK12/Cyclin K; read-out: Inhibition at 10µM (%) Replicate 1, CDK12/K): 20.3% | inhibition at 10 µM (CDK12/Cyclin K; read-out: Inhibition at 10µM (%) Replicate 2, CDK12/K): 31.4% | inhibition at 10 µM (CDK14/Cyclin Y; read-out: Inhibition at 10µM (%) Average, CDK14/Y, average of replicates): 15.8% | inhibition at 10 µM (CDK14/Cyclin Y; read-out: Inhibition at 10µM (%) Replicate 1, CDK14/Y): 11.3% | inhibition at 10 µM (CDK14/Cyclin Y; read-out: Inhibition at 10µM (%) Replicate 2, CDK14/Y): 20.4% | inhibition at 10 µM (CDK5/CDK5R1; [1]): 29.3% | inhibition at 10 µM (CDK5/CDK5R1; [2]): 26.8% | inhibition at 10 µM (CDK5/CDK5R1; [3]): 31.7% | inhibition at 10 µM (CDK16/Cyclin Y; read-out: Inhibition at 10µM (%) Replicate 1, CDK16/Y): 40.1% | inhibition at 10 µM (CDK16/Cyclin Y; read-out: Inhibition at 10µM (%) Replicate 2, CDK16/Y): 26.4% | inhibition at 10 µM (CDK13/Cyclin K; [1]): 23.8% | inhibition at 10 µM (CDK13/Cyclin K; [2]): 28.9% | inhibition at 10 µM (CDK13/Cyclin K; [3]): 18.6% | inhibition at 10 µM (CDK10/Cyclin L2; read-out: Inhibition at 10µM (%) Average, CDK10/L2, average of replicates): 31.2% | inhibition at 10 µM (CDK10/Cyclin L2; read-out: Inhibition at 10µM (%) Replicate 1, CDK10/L2): 25.6% | inhibition at 10 µM (CDK10/Cyclin L2; read-out: Inhibition at 10µM (%) Replicate 2, CDK10/L2): 36.7% | inhibition at 10 µM (CDK2/Cyclin E1; [1]): 46.6% | inhibition at 10 µM (CDK2/Cyclin E1; [2]): 49.2% | inhibition at 10 µM (CDK2/Cyclin E1; [3]): 44% | inhibition at 10 µM (CDK1/Cyclin E1; [1]): 45% | inhibition at 10 µM (CDK1/Cyclin E1; [2]): 45.2% | inhibition at 10 µM (CDK1/Cyclin E1; [3]): 44.8% | inhibition at 10 µM (CDK11B/Cyclin L2; read-out: Inhibition at 10µM (%) Average, CDK11b/L2, average of replicates): 23.5% | inhibition at 10 µM (CDK11B/Cyclin L2; read-out: Inhibition at 10µM (%) Replicate 1, CDK11b/L2): 20.6% | inhibition at 10 µM (CDK11B/Cyclin L2; read-out: Inhibition at 10µM (%) Replicate 2, CDK11b/L2): 26.5% | inhibition at 10 µM (CDK18/Cyclin Y; read-out: Inhibition at 10µM (%) Average, CDK18/Y, average of replicates): 47.7% | inhibition at 10 µM (CDK18/Cyclin Y; read-out: Inhibition at 10µM (%) Replicate 1, CDK18/Y): 44.6% | inhibition at 10 µM (CDK18/Cyclin Y; read-out: Inhibition at 10µM (%) Replicate 2, CDK18/Y): 50.8% | inhibition at 10 µM (CDK20/Cyclin H; CDK20/H, read-out: Inhibition at 10µM (%) Replicate 1): 18.7% | inhibition at 10 µM (CDK20/Cyclin H; read-out: Inhibition at 10µM (%) Replicate 2, CDK20/H): 23.8%
